Data published in patent US10844077B2, “Thiazolyl-containing compounds for treating proliferative diseases” (Dana-Farber Cancer Institute, Inc., priority 2014, dated 2020).
Values joined by “and” are separate entries in the source; they are usually repeats but may differ in a detail not shown here. Equal values may be shown once. Read-outs that look alike come from different tables or passages of the source.

Experiments:
Test in all cases: KINATIV assay
Type in all cases: cell-based
[1] = target: MST1 (Homo sapiens (Human), UniProt Q13043); conditions: 1 μM, 90 minutes, BCWM.1 cells
Summary of the method: (§1)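 Cell lysate + ATP-biotin probe (direct labeling); bound kinases ID'd/quantitated by ACTIVX. Cpds in duplicate vs duplicate or quadruplicate controls.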

[2] = target: CDK6 (Homo sapiens (Human), UniProt Q00534); conditions: 1 μM, 90 minutes, BCWM.1 cells
Summary of the method: as §1

[3] = target: KHS1 (Homo sapiens (Human), UniProt Q9Y4K4); conditions: 1 μM, 90 minutes, BCWM.1 cells
Summary of the method: as §1

[4] = target: NEK1 (Homo sapiens (Human), UniProt Q96PY6); conditions: 1 μM, 90 minutes, BCWM.1 cells
Summary of the method: as §1

[5] = target: FRAP (Homo sapiens (Human), UniProt P42345); conditions: 1 μM, 90 minutes, BCWM.1 cells
Summary of the method: as §1

[6] = test system: MST1, MST2; conditions: 1 μM, 90 minutes, BCWM.1 cells
Summary of the method: as §1

[7] = target: CDK4 (Homo sapiens (Human), UniProt P11802); conditions: 1 μM, 90 minutes, BCWM.1 cells
Summary of the method: as §1

[8] = target: GSK3B (Homo sapiens (Human), UniProt P49841)
Summary of the method: as §1

[9] = target: TBK1 (Homo sapiens (Human), UniProt Q9UHD2); conditions: 1 μM, 90 minutes, BCWM.1 cells
Summary of the method: as §1

[10] = target: MARK4 (Homo sapiens (Human), UniProt Q96L34); conditions: 1 μM, 90 minutes, BCWM.1 cells
MARK4, sequence (Q96L34 whole entry): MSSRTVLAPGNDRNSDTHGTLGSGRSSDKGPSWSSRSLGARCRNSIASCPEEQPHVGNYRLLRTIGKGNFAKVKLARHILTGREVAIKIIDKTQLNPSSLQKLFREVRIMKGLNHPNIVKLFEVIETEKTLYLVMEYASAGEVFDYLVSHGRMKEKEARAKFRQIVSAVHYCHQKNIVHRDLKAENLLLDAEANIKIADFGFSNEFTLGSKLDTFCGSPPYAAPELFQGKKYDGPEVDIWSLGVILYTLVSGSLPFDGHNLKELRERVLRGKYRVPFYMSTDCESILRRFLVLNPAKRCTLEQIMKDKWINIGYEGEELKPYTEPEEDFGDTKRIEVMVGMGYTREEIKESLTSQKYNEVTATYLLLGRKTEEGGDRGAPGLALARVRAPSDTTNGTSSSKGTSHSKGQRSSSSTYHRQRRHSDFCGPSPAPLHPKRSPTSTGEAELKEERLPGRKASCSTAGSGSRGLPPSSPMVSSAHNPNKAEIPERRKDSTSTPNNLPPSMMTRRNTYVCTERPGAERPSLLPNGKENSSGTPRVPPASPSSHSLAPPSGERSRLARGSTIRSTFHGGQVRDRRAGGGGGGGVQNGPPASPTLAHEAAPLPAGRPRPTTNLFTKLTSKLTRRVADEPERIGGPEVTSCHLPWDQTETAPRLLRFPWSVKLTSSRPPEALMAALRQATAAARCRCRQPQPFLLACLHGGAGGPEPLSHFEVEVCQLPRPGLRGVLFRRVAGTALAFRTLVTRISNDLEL
Summary of the method: as §1

[11] = target: HPK1 (Homo sapiens (Human), UniProt Q92918); conditions: 1 μM, 90 minutes, BCWM.1 cells
HPK1, sequence (Q92918 whole entry): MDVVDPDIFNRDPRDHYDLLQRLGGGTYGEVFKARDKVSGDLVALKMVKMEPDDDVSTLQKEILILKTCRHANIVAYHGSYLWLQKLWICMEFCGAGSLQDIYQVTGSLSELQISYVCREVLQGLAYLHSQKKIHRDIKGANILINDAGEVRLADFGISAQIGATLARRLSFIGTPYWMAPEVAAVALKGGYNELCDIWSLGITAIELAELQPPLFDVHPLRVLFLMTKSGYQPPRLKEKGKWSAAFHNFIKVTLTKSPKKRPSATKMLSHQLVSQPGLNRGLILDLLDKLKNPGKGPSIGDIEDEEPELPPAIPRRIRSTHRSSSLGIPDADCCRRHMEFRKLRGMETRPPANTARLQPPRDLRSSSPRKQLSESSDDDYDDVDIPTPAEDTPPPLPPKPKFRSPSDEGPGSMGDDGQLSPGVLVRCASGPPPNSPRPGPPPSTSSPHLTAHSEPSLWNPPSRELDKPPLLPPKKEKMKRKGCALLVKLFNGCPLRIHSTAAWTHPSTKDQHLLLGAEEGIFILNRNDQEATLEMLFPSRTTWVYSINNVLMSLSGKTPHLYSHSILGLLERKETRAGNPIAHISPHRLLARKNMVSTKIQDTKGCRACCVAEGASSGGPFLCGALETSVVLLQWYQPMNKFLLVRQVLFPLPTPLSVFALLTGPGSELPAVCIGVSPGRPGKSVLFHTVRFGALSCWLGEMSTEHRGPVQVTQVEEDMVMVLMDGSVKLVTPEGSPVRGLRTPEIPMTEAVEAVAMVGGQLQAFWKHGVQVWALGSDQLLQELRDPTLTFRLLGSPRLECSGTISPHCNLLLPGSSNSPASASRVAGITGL
Summary of the method: as §1

[12] = target: TAO2 (Homo sapiens (Human), UniProt Q9UL54); conditions: 1 μM, 90 minutes, BCWM.1 cells
Summary of the method: as §1

[13] = target: EphB1 (Homo sapiens (Human), UniProt P54762); conditions: 1 μM, 90 minutes, BCWM.1 cells
Summary of the method: as §1

[14] = target: SNRK (Homo sapiens (Human), UniProt Q9NRH2); conditions: 1 μM, 90 minutes, BCWM.1 cells
SNRK, sequence (Q9NRH2 whole entry): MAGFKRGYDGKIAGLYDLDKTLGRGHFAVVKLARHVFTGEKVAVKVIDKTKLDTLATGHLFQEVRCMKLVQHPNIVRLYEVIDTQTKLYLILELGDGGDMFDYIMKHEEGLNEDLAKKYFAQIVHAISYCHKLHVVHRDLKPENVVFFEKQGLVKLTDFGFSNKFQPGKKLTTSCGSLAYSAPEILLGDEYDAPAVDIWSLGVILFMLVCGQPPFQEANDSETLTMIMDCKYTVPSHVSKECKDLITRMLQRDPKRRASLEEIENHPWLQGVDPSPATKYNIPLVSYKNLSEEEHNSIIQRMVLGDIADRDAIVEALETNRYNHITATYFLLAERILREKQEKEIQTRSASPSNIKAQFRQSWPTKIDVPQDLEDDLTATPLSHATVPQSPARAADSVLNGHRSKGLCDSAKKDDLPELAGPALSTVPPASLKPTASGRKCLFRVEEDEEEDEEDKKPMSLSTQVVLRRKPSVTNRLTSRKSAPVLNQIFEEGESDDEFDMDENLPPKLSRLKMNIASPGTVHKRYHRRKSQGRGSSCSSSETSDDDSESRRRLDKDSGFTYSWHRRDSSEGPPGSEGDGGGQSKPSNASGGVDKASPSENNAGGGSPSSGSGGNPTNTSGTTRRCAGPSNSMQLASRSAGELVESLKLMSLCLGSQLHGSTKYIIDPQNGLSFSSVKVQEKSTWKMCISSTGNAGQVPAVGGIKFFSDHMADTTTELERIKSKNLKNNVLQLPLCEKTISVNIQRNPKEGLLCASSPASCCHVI
Summary of the method: as §1

[15] = target: ATR (Homo sapiens (Human), UniProt Q13535); conditions: 1 μM, 90 minutes, BCWM.1 cells
Summary of the method: as §1

[16] = target: PIK3CD (Homo sapiens (Human), UniProt O00329); conditions: 1 μM, 90 minutes, BCWM.1 cells
Summary of the method: as §1

[17] = target: p38b (Homo sapiens (Human), UniProt Q15759); conditions: 1 μM, 90 minutes, BCWM.1 cells
p38b, sequence (Q15759 whole entry): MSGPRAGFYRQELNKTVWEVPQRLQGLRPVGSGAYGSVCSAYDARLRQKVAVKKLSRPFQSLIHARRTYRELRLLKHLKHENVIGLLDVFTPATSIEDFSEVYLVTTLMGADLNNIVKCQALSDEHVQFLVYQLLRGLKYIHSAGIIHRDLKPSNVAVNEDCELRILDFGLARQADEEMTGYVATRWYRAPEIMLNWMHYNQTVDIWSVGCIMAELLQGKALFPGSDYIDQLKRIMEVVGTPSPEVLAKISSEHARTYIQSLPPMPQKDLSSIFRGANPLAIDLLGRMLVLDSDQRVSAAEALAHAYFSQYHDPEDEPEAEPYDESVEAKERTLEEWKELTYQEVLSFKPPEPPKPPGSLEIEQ
Summary of the method: as §1

[18] = target: CK2a2 (Homo sapiens (Human), UniProt P19784); conditions: 1 μM, 90 minutes, BCWM.1 cells
CK2a2, sequence (P19784 whole entry): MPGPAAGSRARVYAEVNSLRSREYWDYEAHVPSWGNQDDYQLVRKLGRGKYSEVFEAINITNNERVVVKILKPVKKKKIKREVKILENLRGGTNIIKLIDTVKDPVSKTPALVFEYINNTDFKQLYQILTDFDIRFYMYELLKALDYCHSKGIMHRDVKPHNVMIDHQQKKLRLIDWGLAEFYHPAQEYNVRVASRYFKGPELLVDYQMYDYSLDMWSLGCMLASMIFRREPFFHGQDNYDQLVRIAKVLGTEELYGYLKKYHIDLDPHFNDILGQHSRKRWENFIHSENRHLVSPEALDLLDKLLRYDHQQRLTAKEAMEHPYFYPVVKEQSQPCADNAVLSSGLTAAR
Summary of the method: as §1

[19] = target: ULK1 (Homo sapiens (Human), UniProt O75385); conditions: 1 μM, 90 minutes, BCWM.1 cells
Summary of the method: as §1

[20] = test system: CaMK2a, CaMK2b, CaMK2d, CaMK2g; conditions: 1 μM, 90 minutes, BCWM.1 cells
Summary of the method: as §1

[21] = test system: PITSLRE; conditions: 1 μM, 90 minutes, BCWM.1 cells
Summary of the method: as §1

[22] = test system: MAST1, MAST2; conditions: 1 μM, 90 minutes, BCWM.1 cells
Summary of the method: as §1

[23] = target: AurB (Homo sapiens (Human), UniProt Q96GD4); conditions: 1 μM, 90 minutes, BCWM.1 cells
Summary of the method: as §1

[24] = target: ZC2/TNIK (Homo sapiens (Human), UniProt Q9UKE5); conditions: 1 μM, 90 minutes, BCWM.1 cells
Summary of the method: as §1

[25] = target: MAST3 (Homo sapiens (Human), UniProt O60307); conditions: 1 μM, 90 minutes, BCWM.1 cells
MAST3, sequence (O60307 whole entry): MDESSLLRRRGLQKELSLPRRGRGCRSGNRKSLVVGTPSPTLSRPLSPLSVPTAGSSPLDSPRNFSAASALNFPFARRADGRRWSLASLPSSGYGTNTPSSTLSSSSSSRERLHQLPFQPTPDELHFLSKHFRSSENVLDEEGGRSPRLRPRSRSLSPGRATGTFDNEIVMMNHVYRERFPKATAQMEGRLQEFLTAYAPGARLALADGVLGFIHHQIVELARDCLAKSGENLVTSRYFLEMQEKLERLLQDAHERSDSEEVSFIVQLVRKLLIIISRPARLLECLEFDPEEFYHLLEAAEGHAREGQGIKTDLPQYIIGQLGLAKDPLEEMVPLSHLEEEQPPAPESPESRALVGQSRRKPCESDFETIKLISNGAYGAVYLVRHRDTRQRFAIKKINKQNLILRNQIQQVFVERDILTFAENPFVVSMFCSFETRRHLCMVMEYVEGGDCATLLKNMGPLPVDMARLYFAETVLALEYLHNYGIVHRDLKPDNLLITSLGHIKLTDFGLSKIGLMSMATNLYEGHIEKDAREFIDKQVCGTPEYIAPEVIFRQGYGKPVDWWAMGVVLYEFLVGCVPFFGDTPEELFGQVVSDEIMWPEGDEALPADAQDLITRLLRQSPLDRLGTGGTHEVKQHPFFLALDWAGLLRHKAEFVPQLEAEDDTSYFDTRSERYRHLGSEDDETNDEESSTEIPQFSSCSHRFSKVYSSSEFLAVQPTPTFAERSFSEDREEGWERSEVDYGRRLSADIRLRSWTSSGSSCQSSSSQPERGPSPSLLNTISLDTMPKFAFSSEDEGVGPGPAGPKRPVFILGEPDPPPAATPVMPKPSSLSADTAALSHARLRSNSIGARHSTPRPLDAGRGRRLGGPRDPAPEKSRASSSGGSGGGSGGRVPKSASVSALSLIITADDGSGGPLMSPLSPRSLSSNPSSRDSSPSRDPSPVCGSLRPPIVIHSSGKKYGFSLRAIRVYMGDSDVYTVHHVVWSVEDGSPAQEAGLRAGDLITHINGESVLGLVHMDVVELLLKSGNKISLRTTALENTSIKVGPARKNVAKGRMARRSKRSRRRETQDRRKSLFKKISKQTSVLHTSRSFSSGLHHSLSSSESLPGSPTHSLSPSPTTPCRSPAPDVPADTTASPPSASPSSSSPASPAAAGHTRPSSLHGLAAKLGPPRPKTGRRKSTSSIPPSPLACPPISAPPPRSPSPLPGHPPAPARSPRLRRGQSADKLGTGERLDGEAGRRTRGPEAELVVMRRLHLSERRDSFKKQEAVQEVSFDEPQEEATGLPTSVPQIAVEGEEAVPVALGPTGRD
Summary of the method: as §1

[26] = target: LKB1 (Homo sapiens (Human), UniProt Q15831); conditions: 1 μM, 90 minutes, BCWM.1 cells
Summary of the method: as §1

[27] = target: TLK2 (Homo sapiens (Human), UniProt Q86UE8); conditions: 1 μM, 90 minutes, BCWM.1 cells
Summary of the method: as §1

[28] = target: NEK2 (Homo sapiens (Human), UniProt P51955); conditions: 1 μM, 90 minutes, BCWM.1 cells
NEK2, sequence (P51955 whole entry): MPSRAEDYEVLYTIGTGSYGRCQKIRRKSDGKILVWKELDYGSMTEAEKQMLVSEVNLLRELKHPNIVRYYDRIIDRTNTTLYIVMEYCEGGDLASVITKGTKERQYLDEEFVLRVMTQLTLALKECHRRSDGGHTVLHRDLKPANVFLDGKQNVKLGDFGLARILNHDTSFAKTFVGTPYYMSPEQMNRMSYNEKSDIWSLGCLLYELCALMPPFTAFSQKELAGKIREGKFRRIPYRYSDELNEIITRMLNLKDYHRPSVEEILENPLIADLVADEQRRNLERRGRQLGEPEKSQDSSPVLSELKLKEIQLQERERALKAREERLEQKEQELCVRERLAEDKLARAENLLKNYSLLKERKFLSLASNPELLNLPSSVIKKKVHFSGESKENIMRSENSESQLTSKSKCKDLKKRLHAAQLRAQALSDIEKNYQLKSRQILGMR
Summary of the method: as §1

[29] = target: PAN3 (Homo sapiens (Human), UniProt Q58A45); conditions: 1 μM, 90 minutes, BCWM.1 cells
Summary of the method: as §1

[30] = target: MAP2K7 (Homo sapiens (Human), UniProt O14733); conditions: 1 μM, 90 minutes, BCWM.1 cells
Summary of the method: as §1

[31] = target: MARK2 (Homo sapiens (Human), UniProt Q7KZI7); conditions: 1 μM, 90 minutes, BCWM.1 cells
Summary of the method: as §1

[32] = target: NLK (Homo sapiens (Human), UniProt Q9UBE8); conditions: 1 μM, 90 minutes, BCWM.1 cells
Summary of the method: as §1

[33] = target: STLK5 (Homo sapiens (Human), UniProt Q7RTN6); conditions: 1 μM, 90 minutes, BCWM.1 cells
Summary of the method: as §1

[34] = target: MAP3K2 (Homo sapiens (Human), UniProt Q9Y2U5); conditions: 1 μM, 90 minutes, BCWM.1 cells
Summary of the method: as §1

[35] = target: IKKe (Homo sapiens (Human), UniProt Q14164); conditions: 1 μM, 90 minutes, BCWM.1 cells
Summary of the method: as §1

[36] = target: TLK1 (Homo sapiens (Human), UniProt Q9UKI8); conditions: 1 μM, 90 minutes, BCWM.1 cells
Summary of the method: as §1

Compound	% change of MS signal compared to control sample [1] [%]	% change of MS signal compared to control sample [2] [%]	% change of MS signal compared to control sample [3] [%]	% change of MS signal compared to control sample [4] [%]	% change of MS signal compared to control sample [5] [%]	% change of MS signal compared to control sample [6] [%]	% change of MS signal compared to control sample [7] [%]	% change of MS signal compared to control sample [9] [%]	% change of MS signal compared to control sample [10]	% change of MS signal compared to control sample [11]	% change of MS signal compared to control sample [12] [%]	% change of MS signal compared to control sample [13] [%]	% change of MS signal compared to control sample [14]	% change of MS signal compared to control sample [15] [%]	% change of MS signal compared to control sample [16] [%]	% change of MS signal compared to control sample [17] [%]	% change of MS signal compared to control sample [18] [%]	% change of MS signal compared to control sample [19] [%]	% change of MS signal compared to control sample [20] [%]	% change of MS signal compared to control sample [21] [%]	further results
C=CC(=O)N1CCC(CNc2nccc(Nc3ncc(C(=O)Nc4c(C)cccc4C)s3)n2)C1 (racemic) [Example I-8]	2.4	4.5	−8.4	12.8	−5.2	8.7	6.1	−2.9	−0.4% and 1.6%	32.8% and 24.6%	−4.9	>97	45.1% and 59.1%	−24.9	−16.2	12.0	27.5	16.1	10.4	−16.1	% change of MS signal compared to control sample [8]: −10.7%; % change of MS signal compared to control sample [22]: −32.5%; % change of MS signal compared to control sample [23]: −14.3%; % change of MS signal compared to control sample [24]: 19.0%; % change of MS signal compared to control sample [25]: −8.3%; % change of MS signal compared to control sample [26]: −1.8%; % change of MS signal compared to control sample [27]: 9.4%; % change of MS signal compared to control sample [28]: −3.0%; % change of MS signal compared to control sample [29]: 18.3%; % change of MS signal compared to control sample [30]: −7.5%; % change of MS signal compared to control sample [31]: 12.1%; % change of MS signal compared to control sample [32]: 6.1%; % change of MS signal compared to control sample [33]: 1.1% and −4.0%; % change of MS signal compared to control sample [34]: 3.5%; % change of MS signal compared to control sample [35]: −5.9%
C=CC(=O)N1CCCCC(Nc2nccc(Nc3ncc(C(=O)Nc4c(C)cccc4C)s3)n2)C1 (stereo not shown) [Example I-7]	3.0	4.1	−5.9	11.4	−3.5	9.5	16.7	−39.7	4.9% and 14.1%	23.4% and 19.8%	−18.0	>97	40.7% and 58.7%	−48.0	−19.1	−1.5	−6.4	19.3	7.4	−9.3	% change of MS signal compared to control sample ([8]; GSK3B, 1 μM, 90 minutes, BCWM.1 cells): −1.9%; % change of MS signal compared to control sample [22]: −35.0%; % change of MS signal compared to control sample [36]: 1.8% and 5.5%; % change of MS signal compared to control sample [23]: −6.1%; % change of MS signal compared to control sample [24]: −1.5%; % change of MS signal compared to control sample [25]: −1.6%; % change of MS signal compared to control sample [26]: 1.2%; % change of MS signal compared to control sample [27]: 7.3%; % change of MS signal compared to control sample [28]: 8.5%; % change of MS signal compared to control sample [29]: −0.2%; % change of MS signal compared to control sample [30]: 11.2%; % change of MS signal compared to control sample [31]: 7.7%; % change of MS signal compared to control sample [32]: 4.2%; % change of MS signal compared to control sample [34]: 4.9%; % change of MS signal compared to control sample [35]: 0.4%
